Data: patent publication US12133486B2, “Methods of propagation of arbuscular mycorrhizal fungi (AMF) and uses thereof” (Terra Microbes, LLC, priority 2021, dated 2024)

Experiments:
AM fungi = assay: Field plot study: AMF spore counts in soil around western wheatgrass roots; assay type: in vivo; details: field plots
From the text: (§1) Twelve plots of size 50 cm by 50 cm were established on a homogenous site 2.54 meters (running northeast and southwest) by 4.06 meters (running southeast and northwest). Plant distribution was mostly homogeneous across the entire site, with western wheatgrass dominant. The plots were in four rows with three plots in each row. Within a row plots were 25 cm apart. Rows were 50 cm apart. An experimental unit was one plot. Treatments were replicated three times. Treatments included: controls (no treatment), potassium chloride treatment, potassium phosphate treatment, and potassium phosphite treatment. (See, FIG. 2).
In this study phosphorus, either as phosphate or phosphite, was added at a rate of 120 kg of P per hectare (ha). Scaled down this equates to 3 grams of phosphorous per plot. One ha is 10,000 m^2. Each plot is 50 cm by 50 cm, or 0.25 m^2. The subsequent calculation then is 120 Kg/10,000 m^2=X/0.25 m^2; X=3.00 grams of P per plot. (See Table 2).
(§2) Treatments: All plots received the same amount of solution. The control plots were treated with distilled water only (6.375 L). The KCl plots treated with distilled water containing the same amount of K as was needed to convert the phosphorous acid (H3PO3) to dipotassium phosphite (K2HPO3). The phosphate plots were treated with sufficient dipotassium phosphate (K2HPO4) to deliver 3 g of P per plot dissolved in the same amount of distilled water as the control plots received and the KCl plots received. The phosphite plots were treated with sufficient dipotassium phosphite (K2HPO3) to deliver 3 g of P per plot dissolved in the same amount of distilled water as the control plots received, the KCl plots received and the phosphate plots received.
The field experiment reported in this example was conducted during June through October. Plots were established during early June and treated on the 15th and 16th day (as in Example 3 above). The first soil and root sampling was performed 14 days later (t=14). The second set of samples were taken 47 days later (t=61), and the third set 60 days later (t=121 days). Sample size and depth was as detailed above in Example 3.
AMF spores were evaluated in soil samples from which plant roots including plant roots of western wheatgrass had existed and had been removed. Evaluations were performed on the T=0 and the T=47 samples. These evaluations generally entailed mixing the sample with water, centrifugation, and decanting water. This step was performed to remove light organic matter and other light materials, e.g., leaf fragments. This was followed by mixing the soil with a solution of sodium hexametaphosphate (2%) in 2 M sucrose. Centrifugation results in the spores floating on the sucrose solution or suspended in it. The sucrose solution plus spores is decanted into a separatory funnel. The suspension was allowed to exit the funnel one drop at a time. The spores adhere to the inside of the funnel and once all liquid has exited the funnel the spores are washed into a petri-dish and counted under a dissecting microscope.
The specific protocol for spore extraction was as follows: • A) Weigh 5 g of air dried soil into a 20 ml centrifuge tube. For a complete sample this is replicated four times. • B) Fill each tube with water to ˜1.5 cm of the top. Stir to suspend organic matter and other light debris. Let all tubes stand for 10 minutes. • C) Centrifuge at 2000 rpm (475.2×g) for 10 minutes. Be sure tubes are placed across from each other in the centrifuge and are within 0.1 g of the same weight. • D) Pour off and discard supernatant while stirring surface and rotating tube. • E) If much organic matter and other light material remains, repeat steps B through D. • F) Add sucrose/sodium hexametaphosphate solution (2 molar sucrose containing 2% hexametaphosphate: 684.6 g of sucrose (store grade is adequate) and 20 g of sodium hexametaphosphate in one liter of solution using distilled water) to centrifuge tubes to ˜1.5 cm of top. […]

[1] = tested on: AMF infections of western wheatgrass (Pascopyron smithii) roots; assay: Field plot study: AM fungal infection of western wheatgrass roots; assay type: in vivo; details: field plots
From the text: as §1, §2
The field experiment reported in this example was conducted during June through October. Plots were established during early June and treated on the 15th and 16th day (as in Example 3 above). […] Sample size and depth was as detailed above in Example 3.
Analyses of infections were performed by examining roots of wheatgrass (Pascopyron smithii). This plant was the dominant plant in all of the plots and is known to be commonly infected with AM fungi. (See, Loree M. A. J. and Williams S. E., New Phytologist, 106:735-744, 1987; and Wang B. and Qui Y.-L. 2006, Ibid.). During sampling of soils using the methodology outlined in Example 3, above, root of target plants were removed and separated by plant species, each sample being labeled and preserved in FAA solution until being further processed.
Staining of the roots was achieved according to published procedures (see, Phillips J. M. and Hayman D. S., Trans. Brit. Mycological Soc., 55:158-160, 1970) except that cotton blue lactophenol was substituted with lactic acid glycerol with trypan blue since lactophenol is toxic. The procedure used for staining was as follows: • A) Remove roots from FAA Solutions. Cut into 1 cm lengths. Place in test tube, push roots to the bottom of the test tube. • B) Cover roots with 10% KOH (10 grams of reagent grade KOH in enough distilled water to 100 ml). Let stand overnight, about 10 hours. • C) Simmer at 90° C. for one hour in a water bath (container with water and test tubes with roots over a heat source). • D) Rinse in tap water. • E) Rinse five minutes in 0.1 N HCl (3.65 […] of HCl in 1000 ml total volume with distilled water). • F) Rinse in tap water. • G) Simmer at 90° C. one hour (in water bath) in Trypan blue Lactic Acid Glycerol (distilled water, 100 ml; lactic acid (reagent grade 85 to 88%) 100 ml; glycerin (reagent grade 85% also listed as glycerol), 200 ml; trypan blue, 0.1 grams (60% dye content). • H) Rinse in tap water. • I) Place in clear lactic acid glycerol (same formulation as above except without the Trypan blue) if destaining is necessary. Samples can be simmered at 90° C. (one hour in water bath) or left at room temperature for at least 72 hours or longer. • J) Mount on standard glass slide (2.5 cm by 7.6 cm) in lactic acid glycerol. Cover slip (2.3 cm by 4.8 cm) used.
An estimate of the degree of infection of western wheatgrass was made by making microscopic scans of each slide such that 40 root segments were evaluated. The evaluation was performed using the 20× objective, e.g., 200× total magnification—eyepieces were 10× multiplied by the objective magnification. […]

SMILES: [Cl-].[K+] [KCl, potassium chloride, reference compound]
- Total Spores t = 47 days (AM fungi; mean n = 3, P added at 120 kg/ha (KCl: same K), second sampling): 14806Ab Per 100 g soil
- Total Spores t = 0 days (AM fungi; mean n = 3, P added at 120 kg/ha (KCl: same K), t = 0 = first sampling, 14 days after treatment): 6398Aa Per 100 g soil
- spore numbers compared with the control (AM fungi; second sampling, t = 47): significant increase in spore numbers from the control
- infection level compared to the control and phosphorus treated plants ([1]; third sampling, t = 97 days): small depression in infection levels
- AM Infection t = 0 days ([1]; western wheatgrass roots, mean n = 3, first sampling): 31Aa Per forty 1.1 mm root segments
- AM Infection t = 47 days ([1]; western wheatgrass roots, mean n = 3, second sampling): 34Aab Per forty 1.1 mm root segments
- AM Infection t = 97 days ([1]; western wheatgrass roots, mean n = 3, third sampling): 36BCabc Per forty 1.1 mm root segments
